Assay [1] concerns Spontaneously hypertensive rats (SHR). Description: SBP of SHR by Tail-Cuff method, continuous intragastric administration for 8 days (Examples 1-7). The conditions noted are these: for maximum reduction of the blood pressure / SBP / SBP difference value compared with the basic value / AUC0-24h (area under blood pressure reduction-time curve): Can 0.36 mg/kg i.g. 8 days; for maximum reduction of the blood pressure: 0-24 h after last administration; for AUC0-24h (area under blood pressure reduction-time curve): after last administration. It counts as in vivo, rat. On the procedure:
(§1) Spontaneously hypertensive rats (SHR), male, are provided by Beijing Vital River Laboratory Animal Technology Co., Ltd. The number of animal production license is SCXK (Jing) 2007-0001. Animals are raised in an observation room at the room temperature of 25±2° C. controlled by central air-conditioning system and with artificial lighting of 12 h/day. The animals are raised in separate cages sized 43×27×18 cm with 4 animals for each cage. The rats are free access to water and are fed with block fodder everyday, and the water supply is refreshed once a day. The temperature of the room for measuring the blood pressure is 26±2° C.
(§2) The blood pressure is measured by Tail-Cuff method and the hear rate is measured according to the pulse frequency. Animals are pre-trained for the blood pressure measurement for more than 2 weeks so as to adapt to the environment of measurement. Animals are placed in a isothermal bag at 37° C. to be prewarmed for 5 to 10 min for formal measurement. Blood pressures of the rats are measured from tail arteries for 2 to 3 times at rest states, and an average value is taken as each blood pressure measured value. All data are collected and preserved by a computer.
SHRs with systolic blood pressures (SBPs) >190 mmHg are selected for experiment.
Rats are randomly divided into 14 groups according to their blood pressures with each group having 7 rats. Animals are fasted overnight and measured for the blood pressure of pre-administration at the day of experiment, and then administered drugs in accordance with the following method:
The single-drug group is intragastrically administered candesartan (Can) or chlorthalidone (Chl), with the dosage of Can of 0.36 mg/kg and the dosages of Chl of 0.0675, 0.36, 0.54, 0.72, 1.125 and 2.25 mg/kg respectively;
The pharmaceutical composition is administered with 6 different doses (denoted by F1, F2, F3, F4, F5 and F6 respectively). Specifically, the ratios of the dosages of Can+Chl in all pharmaceutical compositions are:
The administration volumes are all 5 ml/kg.
Rats are continuously administered for 8 days. SBPs are measured 2, 4, 8, 12 and 24 hours after the last administration. The area under blood pressure reduction-time curve from 0 to 24 h (AUC0-24) and the maximum blood pressure reduction value are calculated.
(§3) The calculated results are expressed as mean±standard error ( x±SE); statistical treatment is performed using unpaired t test between groups to compare the significance of the average difference; the interaction between drugs are determined by using factorial analysis of variance, and P<0.05 means the difference has statistical significance.

Assay [2] shares this test system. Description: SBP of SHR by Tail-Cuff method, first administration and continuous administration for 14 days (Examples 8-12). The conditions noted are these: for AUC0-24h: after first administration. It is filed as in vivo, rat. How it is done: as §1, §2
SHRs with systolic blood pressures (SBPs)>190 mmHg are selected for experiment.
Rats are randomly divided into 20 groups according to their blood pressures with each group having 8-10 rats. Animals are fasted overnight and measured for the blood pressure of pre-administration at the day of experiment, and then administered drugs in accordance with the following method:
The single-drug group is intragastrically administered candesartan (Can) or chlorthalidone (Chl), with the dosage of Can of 0.1, 0.2, 0.4 mg/kg respectively and the dosage of Chl of 0.3125, 0.625, 1.25 mg/kg respectively;
According to the clinical single-drug specification, the ratios of Can+Chl are set as follows:
For the ratio of Can:Chl=1:6.25, one dose of 0.1+0.625 mg/kg is set;
For the ratio of Can:Chl=1:3.125, two doses of 0.2+0.625 and 0.4+1.25 mg/kg are set;
For the ratio of Can:Chl=1.28:1, one dose of 0.4+0.3125 mg/kg is set;
For the ratio of Can:Chl=2.56:1, one dose of 0.4+0.15625 mg/kg is set;
The administration volumes are all 5 mL/kg. Rats are continuously administered for 14 days. SBPs are measured 2, 4, 8, 12 and 24 hours after the first administration. On the day of 3, 7, 14 days after administration, the blood pressures are measured before administration and 5 hours after administration. Areas under blood pressure reduction-time curve from 0 to 24 h and from 0 to 14 days (AUC0-24h, AUC0-14d) are calculated.
as §3

Assay [3] deals with patients. The conditions noted are these: study in 1714 patients; cited from earlier work.
For assay [4] the following is noted: 25-50 mg/d of hydrochlorothiazide; clinical studies; cited from earlier work.
For assay [5] the following is noted: clinical studies; cited from earlier work.
[6] abbreviates: listed as candesartan cilexetil.

The values that follow come from US9216169B2, “Pharmaceutical composition comprising candesartan or ester thereof and chlortalidone, and use thereof” (TIANJIN INSTITUTE OF PHARMACEUTICAL RESEARCH, priority 2011, dated 2015).

Several values for one entry are separate records, joined by “and”; a condition that tells them apart may be missing. Equal entries are not always repeated.

On to `CCOc1nc2cccc(C(=O)OC(C)OC(=O)OC3CCCCC3)c2n1Cc1ccc(-c2ccccc2-c2nn[nH]n2)cc1` (stereo not shown) [Can, Candesartan cilexetil], for which the “maximum reduction of the blood pressure” value in assay [1] is on record as −19.0 mmHg; in assay [1] (setting [6]), 19.0 mmHg. The SBP in assay [1] (2 h after last administration) turned out to be 192 mmHg; in assay [1] (4 h after last administration), 185 mmHg; in assay [1] (8 h after last administration), 196 mmHg; in assay [1] (12 h after last administration), 199 mmHg; in assay [1] (24 h after last administration), 204 mmHg; in assay [1] (pre-administration) it was 201 mmHg. Further, the “SBP difference value compared with the basic value” in assay [1] (2 h after last administration) is recorded as “(−11.0 mmHg”; in assay [1] (4 h after last administration), “(−17.7 mmHg”; in assay [1] (8 h after last administration) it was “(−7.3 mmHg”; in assay [1] (12 h after last administration), “(−3.7 mmHg”; in assay [1] (24 h after last administration), “(1.4 mmHg”; in assay [1] (pre-administration), “(−2.0 mmHg”. Besides, the entries for the “AUC0-24h (area under blood pressure reduction-time curve)” value in assay [1] and in assay [1] (setting [6]) were −127.0 mmHg · h and −127 mmHg · h, respectively. The “period after administration with significant reduction of SBP” value in assay [1] (Can 0.36 mg/kg oral) lay in the range of 2 to 8 h. Further, in assay [1] (Can 0.36 mg/kg oral), the “time at which the antihypertensive effect takes effect after administration” value was determined as 2 h. The figures for the AUC0-14d in assay [2] (Can 0.1 mg/kg i.g. for 14 days), in assay [2] (Can 0.2 mg/kg i.g. for 14 days) and in assay [2] (Can 0.4 mg/kg i.g. for 14 days) were −149.9 mmHg · d, −173.1 mmHg · d and −227.3 mmHg · d, respectively. Further, the AUC0-24h in assay [2] (Can 0.1 mg/kg i.g.) is −209.1 mmHg · h; in assay [2] (Can 0.2 mg/kg i.g.), −237.7 mmHg · h; in assay [2] (Can 0.4 mg/kg i.g.) it was −326.0 mmHg · h and −326 mmHg · h.

Consider `CCOc1nc2cccc(C(=O)O)c2n1Cc1ccc(-c2ccccc2-c2nc(=O)o[nH]2)cc1` [azilsartan], for which the “reduction of SBP compared with the basic value” in assay [3] is given as 12.1-15.9 mmHg.

Take `NS(=O)(=O)c1cc2c(cc1Cl)NCNS2(=O)=O` [hydrochlorothiazide, Hydrochlorothiazide]: in assay [4], the “lowering of 24-hour blood pressure” value is given as 7.4 mmHg and the “lowering of night-time blood pressure” value is recorded as 6.4 mmHg.

For `NCCCC[C@H](N[C@@H](CCc1ccccc1)C(=O)O)C(=O)N1CCC[C@H]1C(=O)O` [lisinopril], the “valid control rate of blood pressure” value in assay [5] is given as 61.2%.
